Legend:
human V1a receptor [1] = target: T1, human V1a receptor (Homo sapiens, UniProt P37288); experiment: In-vitro binding assay (3H-arginine-8-vasopressin), V1a; conditions: for IC50: membrane containing human V1a receptor, 3H-arginine-8-vasopressin 0.65-0.75 nM; for inhibition at 0.2 µM: test concentration of 0.2 μM, read-out: V1a binding percent inhibition (in parentheses, where an IC50 value was not obtained)
T1 construct: expressed in transfected cells
Procedure: (§1) Assay buffer is 50 mM Tris-Cl, 5 mM MgCl2, 0.1% BSA (pH 7.5) containing 5 μg/mL of aprotinin, leupeptin, pepstatin, 50 μg/mL bacitracin, and 1 mM Pefabloc (4-(2-aminoethyl)-benzenesulfonyl fluoride, hydrochloride manufactured by Roche Diagnostics Corporation, Indianapolis, Ind. and distributed by Boehringer Mannheim). H3 vasopressin is ^3H-arginine-8-vasopressin (NEN Life Sciences, Boston, Mass.; 68.5 Ci/mmol, final concentration in assay is 0.65-0.75 nM). Into the wells of a 96-well round bottom polypropylene plates are added buffer, test compound, membrane (containing human V1a or V2 receptor), and H3 vasopressin. The reaction plates are allowed to sit at room temperature for one hour. The samples are filtered through Unifilter GF/C plates (PerkinElmer Life Sciences, Boston, Mass.) presoaked in 0.3 polyethyleneimine. The plates are washed 5 times with cold physiological saline containing 0.05% Tween 20. After drying, the bottom of the filter plates are sealed and 0.025 mL of Microscint-20 (Packard Instrument Co, Meriden, Conn.) is added to each filter. The top of the plate is sealed, and the plate is counted. Non-specific binding is determined by the addition of 1.25 μM arginine-8-vasopressin in those wells.
(§2) The % inhibition for the test results was calculated according to the formula: […]
Where an IC50 value was not obtained, the percent inhibition values are shown in parentheses (*) and were obtained at a test concentration of 0.2 μM.

human V2 receptor [2] = target: T2, human V2 receptor (Homo sapiens, UniProt P30518); experiment: In-vitro binding assay (3H-arginine-8-vasopressin), V2; conditions: for IC50: membrane containing human V2 receptor, 3H-arginine-8-vasopressin 0.65-0.75 nM; for inhibition at 0.2 µM: test concentration of 0.2 μM, read-out: V2 binding percent inhibition (in parentheses, where an IC50 value was not obtained)
T2 sequence (P30518 whole entry): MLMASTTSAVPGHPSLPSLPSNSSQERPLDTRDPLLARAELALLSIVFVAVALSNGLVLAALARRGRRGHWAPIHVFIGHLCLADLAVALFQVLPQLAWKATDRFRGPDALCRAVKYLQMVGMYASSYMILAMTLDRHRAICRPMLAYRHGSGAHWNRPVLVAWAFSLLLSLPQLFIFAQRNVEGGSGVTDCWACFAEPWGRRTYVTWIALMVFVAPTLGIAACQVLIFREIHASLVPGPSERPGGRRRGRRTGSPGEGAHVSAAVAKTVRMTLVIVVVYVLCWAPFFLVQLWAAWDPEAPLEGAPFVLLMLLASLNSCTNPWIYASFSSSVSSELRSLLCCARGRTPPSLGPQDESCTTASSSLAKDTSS
Procedure: as §1, with “H3 vasopressin is ^3H-arginine-8-vasopressin (NEN Life Sciences, Boston, Mass.; 68.5 Ci/mmol, final concentration in assay is 0.65-0.75 nM).” left out, “counted.” for “counted. Non-specific binding is determined by the addition of 1.25 μM arginine-8-vasopressin in those wells.”
as §2

human V1a receptor [3] = target: T1, human V1a receptor; experiment: cell-based
Procedure: The V1a receptor is a G-protein coupled receptor, which upon activation triggers an increase in intracellular calcium mobilization. To evaluate compounds for their functional V1a receptor activity, HEK-293 cells were transfected with the human V1a receptor (V1a-HEK cells). HEK-293 cells were grown in DMEM (Dulbecco's modified Eagle Media) supplemented with 10% FBS and glutamine. HEK-cells were passed biweekly by trypsinization and seeded into 96 well plates at 33,000 cells per well. HEK-293 cells were transfected with human V1a receptor DNA using DMRIE-C reagent from Life Technologies (Carlsbad, Calif.). Stable lines were generated by selecting cells grown in culture media containing geneticin. After growing in Packard Clear-View black 96 well plates for 4-6 days, V1a-HEK cells were loaded with the calcium-sensitive fluorescence dye, FLUO-3 AM. Changes in intracellular calcium mobilization were measured by quantitating intracellular fluorescence using FLIPR (Fluorometric Imaging Plate Reader; Molecular Devices, Sunnyvale, Calif.). Test compounds were first added to the cells and the resulting changes in fluorescence measured to detect receptor agonistic activity. Five minutes later the cells were challenged with vasopressin to test compounds for their antagonistic activity. Receptor antagonists inhibit the ability of vasopressin to stimulate increases in intracellular fluorescence.

human V2 receptor [4] = target: T2, human V2 receptor; experiment: V2 vasopressin receptor functional activity (cAMP accumulation); assay type: cell-based; set-up: expressed in transfected cells; host or cells: HEK-293; conditions: V2-HEK cells; block of vasopressin-stimulated cAMP accumulation; read-out: V2 (functional) IC50
Procedure: The V2 receptor is also a G-protein coupled receptor which when activated induces an increase in cAMP turnover. Antagonism against the V2 receptor is determined by measuring cAMP accumulation in transfected HEK-293 cells expressing the human V-2 receptor (V2-HEK cells). Compounds are tested for their ability to block the stimulatory effects of vasopressin on cAMP accumulation. The cell content of cAMP is measured by radioimmunoassay using NEN flashplates.

[5] = V1 (functional) IC50, V1a-HEK cells, inhibition of vasopressin-stimulated intracellular calcium mobilization

T1 sequence (P37288 whole entry): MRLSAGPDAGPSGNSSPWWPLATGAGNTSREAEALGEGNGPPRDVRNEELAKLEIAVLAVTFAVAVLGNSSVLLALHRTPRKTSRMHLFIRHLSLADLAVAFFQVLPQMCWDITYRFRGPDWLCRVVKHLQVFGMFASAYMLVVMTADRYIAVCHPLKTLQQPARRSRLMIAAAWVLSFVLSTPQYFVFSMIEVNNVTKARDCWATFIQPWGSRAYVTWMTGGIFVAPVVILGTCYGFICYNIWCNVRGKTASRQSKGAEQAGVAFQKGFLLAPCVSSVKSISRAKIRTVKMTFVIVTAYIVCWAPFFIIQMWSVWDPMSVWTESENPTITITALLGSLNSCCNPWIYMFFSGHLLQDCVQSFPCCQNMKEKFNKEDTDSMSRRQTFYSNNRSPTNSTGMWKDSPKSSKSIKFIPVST

| SMILES | IC50 (human V1a receptor [1]) [nM] | IC50 (human V2 receptor [2]) [nM] | IC50 (human V2 receptor [4]) [nM] | further results |
| --- | --- | --- | --- | --- |
| CON=C1CCCC12CCN(C(=O)c1ccc(NC(=O)c3cc(F)ccc3Cl)cc1)c1ccccc1C2 (centres unmarked) [Cpd 2, N-[4-(2-chloro-5-fluoro-phenylcarbonyl)amino-phenylcarbonyl]-2-methoxyimino-spiro[cyclopentane-1,4′-benzo[b]azepane]] | 7 | 44 | – | – |
| COc1cc(C(=O)N2CCC3(CCCC3N)Cc3ccccc32)ccc1NC(=O)c1cccc(F)c1 (centres unmarked) [Cpd 50, 2-amino-N-[3-methoxy-4-(3-fluoro-phenylcarbonyl)amino-phenylcarbonyl]-spiro[cyclopentane-1,4′-benzo[b]azepane]] | – | – | – | inhibition at 0.2 µM (human V1a receptor [1]): 89%; inhibition at 0.2 µM (human V2 receptor [2]): 9% |
| Cn1ccnc1C1=CCCC12CCN(C(=O)c1ccc(NC(=O)c3cc(F)ccc3Cl)cc1)c1ccccc1C2 (centres unmarked) [Cpd 5, N-[4-(2-chloro-5-fluoro-phenylcarbonyl)amino-phenylcarbonyl]-2-(1-methyl-1H-imidazol-2-yl)-spiro[cyclopent-2-ene-1,4′-benzo[b]azepane]] | 9 | 84 | 66 | IC50 (human V1a receptor [3]): 130 nM |
| COc1cc(C(=O)N2CCC3(CCCC3N)Cc3ccccc32)ccc1NC(=O)c1cc(F)ccc1Cl (centres unmarked) [Cpd 8, 2-amino-N-[3-methoxy-4-(2-chloro-5-fluoro-phenylcarbonyl)amino-phenylcarbonyl]-spiro[cyclopentane-1,4′-benzo[b]azepane]] | 16 | 83 | – | – |
| CN(C)C1CCCC12CCN(C(=O)c1ccc(NC(=O)c3cc(F)ccc3Cl)cc1)c1ccccc1C2 (centres unmarked) [Cpd 6, N-[4-(2-chloro-5-fluoro-phenylcarbonyl)amino-phenylcarbonyl]-2-dimethylamino-spiro[cyclopentane-1,4′-benzo[b]azepane]] | 10 | – | 107 | inhibition at 0.2 µM (human V2 receptor [2]): 63%; IC50 (human V1a receptor [3]): 70 nM |
| Cc1ccn(-c2ccc(C(=O)N3CCC4(CCCC4=NO)Cc4ccccc43)cc2)n1 (centres unmarked) [Cpd 47, N-[4-(3-methyl-1H-pyrazol-1-yl)-phenylcarbonyl]-2-hydroxyimino-spiro[cyclopentane-1,4′-benzo[b]azepane]] | – | – | – | inhibition at 0.2 µM (human V1a receptor [1]): 86%; inhibition at 0.2 µM (human V2 receptor [2]): 62% |
| O=C(Nc1ccc(C(=O)N2CCC3(CCCC3=NO)Cc3ccccc32)cc1)c1cc(F)ccc1Cl (centres unmarked) [Cpd 44, N-[4-(2-chloro-5-fluoro-phenylcarbonyl)amino-phenylcarbonyl]-2-hydroxyimino-spiro[cyclopentane-1,4′-benzo[b]azepane]] | 7 | 28 | 66 | IC50 (human V1a receptor [3]; [5]): 20 nM |
| O=C(Nc1ccc(C(=O)N2CCC3(CCCC3=NO)Cc3ccccc32)cc1)c1ccccc1-c1ccccc1 (centres unmarked) [Cpd 37, N-[4-(biphen-2-ylcarbonyl)amino-phenylcarbonyl]-2-hydroxyimino-spiro[cyclopentane-1,4′-benzo[b]azepane]] | 23 | 27 | 90 | IC50 (human V1a receptor [3]; [5]): 30 nM |
| Cc1ccccc1C(=O)Nc1ccc(C(=O)N2CCC3(CCCC3=NO)Cc3ccccc32)cc1 (centres unmarked) [Cpd 49, N-[4-(2-methyl-phenylcarbonyl)amino-phenylcarbonyl]-2-hydroxyimino-spiro[cyclopentane-1,4′-benzo[b]azepane]] | 12 | 34 | – | – |
| O=C(c1ccc(N2CCCC2)cc1)N1CCC2(CCCC2=NO)Cc2ccccc21 (centres unmarked) [Cpd 46, N-[4-pyrrolidin-1-yl-phenylcarbonyl]-2-hydroxyimino-spiro[cyclopentane-1,4′-benzo[b]azepane]] | – | – | – | inhibition at 0.2 µM (human V1a receptor [1]): 73%; inhibition at 0.2 µM (human V2 receptor [2]): 40% |
| CON=C1CC[C@@]2(CCN(C(=O)c3ccc(NC(=O)c4cc(F)ccc4Cl)c(OC)c3)c3ccccc3C2)C1 [Cpd 22, (R)—N-[3-methoxy-4-(2-chloro-5-fluoro-phenylcarbonyl)amino-phenylcarbonyl]-3-methoxyimino-spiro[cyclopentane-1,4′-benzo[b]azepane]] | – | – | 740 | IC50 (human V1a receptor [3]; [5]): 290 nM |
| COc1cc(C(=O)N2CC[C@@]3(CCC(=CC(=O)NCCO)C3)Cc3ccccc32)ccc1NC(=O)c1cc(F)ccc1Cl [Cpd 29, (R)—N-[3-methoxy-4-(2-chloro-5-fluoro-phenylcarbonyl)amino-phenylcarbonyl]-3-(2-hydroxy-ethyl)aminocarbonylmethylene-spiro[cyclopentane-1,4′-benzo[b]azepane]] | – | – | 90 | IC50 (human V1a receptor [3]; [5]): 170 nM |
| O=C(Nc1ccc(C(=O)N2CCC3(CCCC3=NO)Cc3ccccc32)cn1)c1cc(F)ccc1Cl (centres unmarked) [Cpd 10, N-[6-(2-chloro-5-fluoro-phenylcarbonyl)amino-pyridin-3-ylcarbonyl]-2-hydroxyimino-spiro[cyclopentane-1,4′-benzo[b]azepane]] | 60 | 70 | – | – |
| COc1cc(C(=O)N2CCC3(CCCC3=NO)Cc3ccccc32)ccc1NC(=O)c1cccc(F)c1 (centres unmarked) [Cpd 51, N-[3-methoxy-4-(3-fluoro-phenylcarbonyl)amino-phenylcarbonyl]-2-hydroxyimino-spiro[cyclopentane-1,4′-benzo[b]azepane]] | 16 | 87 | – | – |
| COC(=O)C=C1CC[C@@]2(CCN(C(=O)c3ccc(NC(=O)c4cc(F)ccc4Cl)c(OC)c3)c3ccccc3C2)C1 [Cpd 26, (R)—N-[3-methoxy-4-(2-chloro-5-fluoro-phenylcarbonyl)amino-phenylcarbonyl]-3-methoxycarbonylmethylene-spiro[cyclopentane-1,4′-benzo[b]azepane]] | – | – | 70 | IC50 (human V1a receptor [3]; [5]): 4000 nM |
| COc1cc(C(=O)N2CC[C@]3(C=C(c4nnn[nH]4)CC3)Cc3ccccc32)ccc1NC(=O)c1cc(F)ccc1Cl [Cpd 11, (R)-N-[3-methoxy-4-(2-chloro-5-fluoro-phenylcarbonyl)amino-phenylcarbonyl]-3-tetrazol-5-yl-spiro[cyclopent-2-ene-1,4′-benzo[b]azepane]] | – | – | 40 | IC50 (human V1a receptor [3]; V1a-HEK cells, inhibition of vasopressin-stimulated intracellular calcium mobilization, read-out: V1 (functional) IC50): 63 nM |
| Cc1ccc(F)cc1C(=O)Nc1ccc(C(=O)N2CCC3(CCCC3=NO)Cc3ccccc32)cc1 (centres unmarked) [Cpd 48, N-[4-(2-methyl-5-fluoro-phenylcarbonyl)amino-phenylcarbonyl]-2-hydroxyimino-spiro[cyclopentane-1,4′-benzo[b]azepane]] | 16 | 26 | – | – |
| NS(=O)(=O)NC(=O)C1=C[C@@]2(CC1)CCN(C(=O)c1ccc(NC(=O)c3cc(F)ccc3Cl)cc1)c1ccccc1C2 [Cpd 52, (R)-3-aminosulfonylaminocarbonyl-N-[4-(2-chloro-5-fluoro-phenylcarbonyl)amino-phenylcarbonyl]-spiro[cyclopent-2-ene-1,4′-benzo[b]azepane]] | – | – | 35 | IC50 (human V1a receptor [3]): 77 nM |

Reference: US20080306044A1, “SPIROBENZOAZEPANES AS VASOPRESSIN ANTAGONISTS” (priority 2007, published 2008)
